According to patent publication US20050070872A1, “Blood bag system and method of inactivating pathogenic microorganisms” (priority 2001, published 2005):
Read-outs that look alike come from different tables or passages of the source.

Experiments:
Simian Virus 40 (SV-40) [1] = assay: Virus inactivation of SV-40 in RC-MAP (Example 1), TCID50 on CV-1 cells; type: cell-based; conditions: for inactivation effect (positive control TCID50 minus inactivated solution TCID50): 7 hours; for TCID50 of the inactivated solution: room temperature (in the dark) 7 hours, positive control 6.5 log10
Method: In a 400-mL CPDA blood bag in the blood bag system shown in FIG. 1, RC-MAP (concentrated erythrocyte preparation) was prepared from blood collected from healthy humans. Thereafter, 2 mL of RC-MAP was sampled in a 15-mL centrifuging tube aseptically, and 2 mL of 10^8 TCID50/mL (50% infection end point) SV-40 was added thereto, followed by gentle stirring. […] After completion of the inactivation, the inactivated solution was centrifuged at 3,000 rpm for 1 minute and the supernatant was used for the evaluation of virus inactivation.
(§1) Evaluation of virus inactivation was performed by TCID50 using a 96-well microplate. In a 25-cm^2 cell culture flask, a CV-1 cell (simian kidney derived cell), which is a proliferating cell of SV-40, was cultivated in a 10% fetal bovine serum-added MEM medium for 3 days for proliferation. Thereafter, the cells were floated with 0.5 mL of 0.05% trypsin-EDTA, to prepare a cell suspension in 25 mL of the 10% fetal bovine serum-added MEM medium.
(§2) After 90 μL of the cell suspension was added to each well of the 96-well microplate, 10 μL of the reaction mixture (the above-mentioned supernatant) was added to each well of the first column of the 96-well microplate and pipetting was performed to stir the resultant. Further, 10 μL of the solution in each well of the first column was added to each well of the second column of the microplate to perform 10-fold gradual dilution operation. This operation was repeated up to the wells of the twelfth column of the microplate. The microplate was incubated in a 5% carbon dioxide gas incubator at 37° C. for 10 days. Then, a cytopathic effect (CPE) by SV-40 was observed using an optical microscope, and TCID50 were calculated as logarithmic values (log10).
(§3) At the same time, TCID50 of a positive control, in which a phosphate buffer was added instead of the platinum compound, was calculated as a logarithmic value (log10). A value obtained by subtracting TCID50 of the inactivated solution from TCID50 of the positive control was defined as a killing effect.
In FIG. 3, the inactivation effect means a value obtained by subtracting TCID50 of the inactivated solution (logarithmic value (log10)) from TCID50 of the above-mentioned positive control (logarithmic value (log10)).

Simian Virus 40 (SV-40) [2] = assay: Virus inactivation of SV-40 in RC-MAP using the blood bag system (Example 2), TCID50 on CV-1 cells; type: cell-based; conditions: for inactivation effect (positive control TCID50 minus inactivated solution TCID50): 7 hours; for TCID50 of the inactivated solution: room temperature (in the dark) 7 hours, positive control 6.0 log10
Method: Blood was collected from healthy humans and RC-MAP (concentrated erythrocyte preparation) was prepared, which was introduced into the blood bag 1 (400-mL CPDA blood bag) in the blood bag system shown in FIG. 2. Thereafter, 10^8 TCID50/mL (50% infection endpoint) of SV-40 per 2 mL of RC-MAP was added to the blood bag 1 from the air-bleeding tube 10 by using a syringe, and the blood bag 1 was gently stirred.
Thereafter, the blood bag was stirred gently, and the resultant was allowed to react at room temperature (in the dark) for 7 hours to effect inactivation. After completion of the inactivation, 4 mL of the inactivated solution was sampled from the blood bag 1 and centrifuged at 3,000 rpm for 1 minute. The supernatant was used for the evaluation of virus inactivation.
as §1, §2
as §3, with “effect (inactivation effect).” for “effect.”
In FIG. 4, the inactivation effect means a value obtained by subtracting TCID50 of the inactivated solution (logarithmic value (log10)) from TCID50 of the above-mentioned positive control (logarithmic value (log10)).

Yersinia enterocolitica [3] = tested on: Yersinia enterocolitica
Method: In the blood bag 1 (400-mL CPDA blood bag) of the blood bag system shown in FIG. 1, RC-MAP (concentrated erythrocyte preparation) was prepared from blood collected from healthy humans. […] To the resultant was added 2 mL of a 168 mM L-methionine solution having dissolved L-methionine in physiological saline, for a reaction at room temperature for 30 minutes.
Similarly, as neutralizing agents, L-methionine solutions having concentrations of 84 mM, 42 mM, 21 mM, 10.5 mM, 5.25 mM, 2.63 mM, and 1.31 mM, respectively, obtained by dissolving L-methionine in physiological saline or sodium thiosulfate solutions having concentrations of 168 mM, 84 mM, 42 mM, 21 mM, 10.5 mM, 5.25 mM, 2.63 mM, and 1.31 mM, respectively, obtained by dissolving sodium thiosulfate in physiological saline were used to effect a reaction. […] Thereafter, 10 μL of 10^8 CFU/mL Yersinia enterocolitica was added to each solution, and the number of bacterial cells after stirring was measured.
Measurement of bacterial cells was conducted on solutions obtained by repeating 3 times the 10-fold gradual dilution operation consisting of adding 1 mL of the inactivated solution to 9 mL of sterilized physiological saline, stirring the mixture by using a touch mixer, and further adding 1 mL of the resultant to 9 mL of physiological saline for dilution. […], 1 mL or 100 μL of the diluted solution in each stage was mixed in a petri dish having a diameter of 9 cm and containing 15 mL soybean casein digest agar medium. This was cultivated at 31° C. for 2 days. The number of colonies emerged was defined as number of survival bacteria, and a logarithmic value (log10) thereof was defined as a neutralization effect.

SV-40 = conditions: 3.5 mM cisplatin solution then 175 mM sodium thiosulfate solution
Method: as §1
as §2, with “[…] A value obtained by subtracting TCID50 of the inactivated solution from TCID50 of the positive control was defined as” for “Then,”, “killing effect.” for “cytopathic effect (CPE) by SV-40 was observed using an optical microscope, and TCID50 were calculated as logarithmic values (log10).”

[4] = tested on: Human Cytomegalovirus (HCMV); assay: Virus inactivation of HCMV in RC-MAP (Example 3), TCID50 on HEL cells; type: cell-based; conditions: 1.67 mM solution, 7 hours
Method: In the blood bag 1 (a 400-mL CPDA blood bag) in the blood bag system shown in FIG. 1, RC-MAP (concentrated erythrocyte preparation) was prepared from blood collected from healthy humans. Thereafter, 2 mL of RC-MAP was sampled in a 15-mL centrifuging tube aseptically, and 2 mL of 10^7 TCID50/mL HCMV was added thereto, followed by gentle stirring. […] After completion of the inactivation, the inactivated solution was centrifuged at 3,000 rpm for 1 minute and the supernatant was used for the evaluation of virus inactivation.
Evaluation of virus inactivation was performed by TCID50 using a 96-well microplate. In a 25-cm^2 cell culture flask, a HEL cell (primary human embryonic lung fibroblasts cell), which is a proliferating cell of HCMV, was cultivated in a 10% fetal bovine serum-added MEM medium for 3 days for proliferation. […]
After 90 μL of this cell suspension was added to each well of the 96-well microplate, 10 μL of the solution (the above-mentioned supernatant) was added to each well of the first column of the 96-well microplate and pipetting was performed to stir the resultant. […] Then, a cytopathic effect (CPE) by HCMV was observed using an optical microscope, and TCID50 was calculated as a logarithmic value (log10) . At the same time, TCID50 of a positive control, in which a phosphate buffer was added instead of the platinum compound, was calculated as a logarithmic value (log10).

[5] = tested on: Mouse Hepatitis Virus (MHV); assay: Virus inactivation of MHV in RC-MAP (Example 4), TCID50 on DBT cells; type: cell-based; conditions: 1.67 mM solution, 7 hours
Method: Thereafter, 2 mL of RC-MAP was sampled in a 15-mL centrifuging tube aseptically, and 2 mL of 10^7 TCID50/mL MHV was added thereto, followed by gentle stirring. […] After completion of the inactivation, the inactivated solution was centrifuged at 3,000 rpm for 1 minute and the supernatant was used for the evaluation of virus inactivation.
Evaluation of virus inactivation was performed by TCID50 using a 96-well microplate. In a 25-cm^2 cell culture flask, a DBT cell, which is a proliferating cell of MHV, was cultivated in a 5% fetal bovine serum-added MEM medium for 3 days for proliferation. Thereafter, the cells were floated with 0.5 mL of 0.05% trypsin-EDTA, to prepare a cell suspension in 25 mL of the 10% fetal bovine serum-added MEM medium.
After 90 μL of this cell suspension was added to each well of the 96-well microplate, 10 μL of the solution was added to each well of the first column of the 96-well microplate and pipetting was performed to stir the resultant. […] Then, a cytopathic effect (CPE) by MHV was observed using an optical microscope, and TCID50 was calculated as a logarithmic value (log10). At the same time, TCID50 of a positive control, in which a phosphate buffer was added instead of the platinum compound, was calculated as a logarithmic value (log10). […]

Yersinia enterocolitica [6] = assay: Bacteria inactivation of Yersinia enterocolitica in RC-MAP (Example 5), colony count; type: cell-based; conditions: for Number of survival bacteria: RC-MAP, 7 hours
Method: After gentle stirring, the resultant was allowed to react at room temperature (in the dark) for 7 hours to effect inactivation.
This was cultivated at 31° C. for 2 days.
Note that solution to which no cisplatin was added was defined as a positive control. A bacteria inactivation effect was defined by a value obtained by subtracting the number of survival bacteria (logarithmic value (log10)) in cisplatin-added inactivated solution from the number of survival bacteria (logarithmic value (log10)) in the positive control.

[7] = tested on: initial culture cells of Ehrlich cancer; conditions: cited from earlier work

SMILES: [NH2][Pt]1([NH2])[O]CC(=O)[O]1 [nedaplatin]
- inactivation effect (positive control TCID50 minus inactivated solution TCID50) (Simian Virus 40 (SV-40) [1]; 3.5 mM solution): 4.25 log10
- TCID50 of the inactivated solution (Simian Virus 40 (SV-40) [1]; 3.5 mM solution): 2.25 log10
- inactivation effect (positive control TCID50 minus inactivated solution TCID50) (Simian Virus 40 (SV-40) [2]; 3.5 mM solution): 3.5 log10
- TCID50 of the inactivated solution (Simian Virus 40 (SV-40) [2]; 3.5 mM solution): 2.5 log10

SMILES: N.N.O=C([O-])C1(C(=O)[O-])CCC1.[Pt+2] [carboplatin]
- inactivation effect (positive control TCID50 minus inactivated solution TCID50) (Simian Virus 40 (SV-40) [1]; 3.5 mM solution): 1.00 log10
- TCID50 of the inactivated solution (Simian Virus 40 (SV-40) [1]; 3.5 mM solution): 5.50 log10
- inactivation effect (positive control TCID50 minus inactivated solution TCID50) (Simian Virus 40 (SV-40) [2]; 3.5 mM solution): 1.5 log10
- TCID50 of the inactivated solution (Simian Virus 40 (SV-40) [2]; 3.5 mM solution): 4.5 log10

SMILES: CSCC[C@H](N)C(=O)O [methionine, L-methionine]
- Number of survival bacteria (neutralization effect) (Yersinia enterocolitica [3]; methionine 0.44 mM after 4.00 mM cisplatin solution): 0.34 log10
- Number of survival bacteria (neutralization effect) (Yersinia enterocolitica [3]; methionine 0.88 mM after 4.00 mM cisplatin solution): 0.73 log10
- Number of survival bacteria (neutralization effect) (Yersinia enterocolitica [3]; methionine 1.75 mM after 4.00 mM cisplatin solution): 0.89 log10
- Number of survival bacteria (neutralization effect) (Yersinia enterocolitica [3]; methionine 3.5 mM after 4.00 mM cisplatin solution): 1.22 log10
- Number of survival bacteria (neutralization effect) (Yersinia enterocolitica [3]; methionine 7 mM after 4.00 mM cisplatin solution): 1.43 log10
- Number of survival bacteria (neutralization effect) (Yersinia enterocolitica [3]; methionine 14 mM after 4.00 mM cisplatin solution): 1.87 log10
- Number of survival bacteria (neutralization effect) (Yersinia enterocolitica [3]; methionine 28 mM after 4.00 mM cisplatin solution): 3.36 log10
- Number of survival bacteria (neutralization effect) (Yersinia enterocolitica [3]; methionine 56 mM after 4.00 mM cisplatin solution, 30 minutes, same as without cisplatin): 5.1 log10

SMILES: O=S([O-])([O-])=S.[Na+].[Na+] [sodium thiosulfate]
- Number of survival bacteria (neutralization effect) (Yersinia enterocolitica [3]; sodium thiosulfate 0.44 mM after 4.00 mM cisplatin solution): 0.44 log10
- Number of survival bacteria (neutralization effect) (Yersinia enterocolitica [3]; sodium thiosulfate 0.88 mM after 4.00 mM cisplatin solution): 0.86 log10
- Number of survival bacteria (neutralization effect) (Yersinia enterocolitica [3]; sodium thiosulfate 1.75 mM after 4.00 mM cisplatin solution): 1.28 log10
- Number of survival bacteria (neutralization effect) (Yersinia enterocolitica [3]; sodium thiosulfate 3.5 mM after 4.00 mM cisplatin solution): 1.51 log10
- Number of survival bacteria (neutralization effect) (Yersinia enterocolitica [3]; sodium thiosulfate 7 mM after 4.00 mM cisplatin solution): 1.98 log10
- Number of survival bacteria (neutralization effect) (Yersinia enterocolitica [3]; sodium thiosulfate 14 mM after 4.00 mM cisplatin solution): 2.35 log10
- Number of survival bacteria (neutralization effect) (Yersinia enterocolitica [3]; sodium thiosulfate 28 mM after 4.00 mM cisplatin solution): 4.22 log10
- Number of survival bacteria (neutralization effect) (Yersinia enterocolitica [3]; sodium thiosulfate 56 mM after 4.00 mM cisplatin solution, 30 minutes, same as without cisplatin): 5.1 log10
- killing effect (inactivation effect of SV-40) after neutralization (SV-40): no killing effect
- TCID50 after inactivator and neutralizing agent (SV-40; 30 minutes, positive control 6.00 log10): 6.00 log10

SMILES: N.N.[Cl][Pt][Cl] [cisplatin]
- inactivation effect (positive control TCID50 minus inactivated solution TCID50) (Simian Virus 40 (SV-40) [1]; 1.67 mM solution): 5.25 log10
- TCID50 of the inactivated solution (Simian Virus 40 (SV-40) [1]; 1.67 mM solution): 1.25 log10
- inactivation effect (positive control TCID50 minus inactivated solution TCID50) (Simian Virus 40 (SV-40) [2]; 1.67 mM solution): 5.0 log10
- TCID50 of the inactivated solution (Simian Virus 40 (SV-40) [2]; 1.67 mM solution): 1.0 log10
- HCMV killed (anti-HCMV inactivation effect) [4]: 4.00 log10
- MHV killed (MHV inactivation effect) [5]: 4.00 log10
- Bacteria killing effect (Yersinia enterocolitica [6]; cisplatin 0.0209 mM): 0.18 log10
- Number of survival bacteria (Yersinia enterocolitica [6]; cisplatin 0.0209 mM): 4.82 log10
- Bacteria killing effect (Yersinia enterocolitica [6]; cisplatin 0.042 mM): 0.48 log10
- Number of survival bacteria (Yersinia enterocolitica [6]; cisplatin 0.042 mM): 4.52 log10
- Bacteria killing effect (Yersinia enterocolitica [6]; cisplatin 0.083 mM): 1.21 log10
- Number of survival bacteria (Yersinia enterocolitica [6]; cisplatin 0.083 mM): 3.79 log10
- Bacteria killing effect (Yersinia enterocolitica [6]; cisplatin 0.17 mM): 2.20 log10
- Number of survival bacteria (Yersinia enterocolitica [6]; cisplatin 0.17 mM): 2.80 log10
- Bacteria killing effect (Yersinia enterocolitica [6]; cisplatin 0.33 mM): 2.73 log10
- Number of survival bacteria (Yersinia enterocolitica [6]; cisplatin 0.33 mM): 2.27 log10
- Bacteria killing effect (Yersinia enterocolitica [6]; cisplatin 0.67 mM): 3.52 log10
- Number of survival bacteria (Yersinia enterocolitica [6]; cisplatin 0.67 mM): 1.48 log10
- Bacteria killing effect (Yersinia enterocolitica [6]; cisplatin 1.33 mM): 4.94 log10
- Number of survival bacteria (Yersinia enterocolitica [6]; cisplatin 1.33 mM, positive control 5.00 log10): 0.06 log10
- effective concentration against cancer cells (antiviral activity (IC50)) [7]: 0.25 µg/mL
